Reference: patent US8673366B2, “Chemotherapeutic and prophylactic pharmaceutical compositions” (priority 2004, dated 2014)
Where two headings read alike, the source gives them in different places.

Key:
[1] = test system: Escherichia coli (E. coli) strain procured from a patient; assay: MIC macrodilution (NCCLS) serial dilution; type: cell-based; parameters: key to growth in MIC tube: “+” denotes visually detectable growth in MIC tube.; “NG” denotes “no growth” in MIC tube; key to MIC: “NE” denotes not effective; conditions: for MIC: antibiotics
Method: (§1) Cell suspension concentration was calculated by measuring the optical density (A610) between 0.6 and 0.9.
(§2) To study efficacy, the challenge was done by determining minimum inhibitory concentration or MIC by employing serial dilutions. The minimum inhibitory concentration or MIC is defined as the minimum concentration of antibiotic that will inhibit the growth of the isolated microorganism. In its normal mode of operation, a bacterial inoculum is inoculated into tubes containing culture media and varying concentrations of the antibiotic to be tested. The tubes are incubated to allow bacterial growth. The MIC is read as the lowest concentration of biocide that inhibited bacterial growth. The interpretation of this MIC depends on the organism/biocide pair being tested, and is made following standard guidelines. MIC testing of the present compositions was conducted via a macrodilution procedure using NCCLS (National Committee for Clinical Laboratory Standards) methods for antibiotic susceptibility testing. The biological experiments were conducted by serial dilution with Muller Hinton media of ten tubes where the bacterial concentration was 10 million cells/ml in each. In addition to the “as is” samples (i.e. 100%), ten 1:1 serial dilutions of each sample were tested to determine the MIC for each sample-inoculum combination. The equivalent percentages of the dilutions are: 100, 50, 25, 12.5, 6.25, 3.125, 1.562, 0.781, 0.391, and 0.195%. These tubes were then incubated at 37±2° C. for approximately 24 hours without agitation. The tubes were then observed for presence and level of visible growth.

[2] = test system: Staphylococcus aureus (S. aureus) ATCC 43300; assay: MIC macrodilution (NCCLS) serial dilution; type: cell-based; parameters: key to growth in MIC tube: “+” denotes visually detectable growth in MIC tube.; “NG” denotes “no growth” in MIC tube; conditions: for MIC: antibiotics
Method: as §1, §2

[3] = test system: Vero (Simian Kidney Immortalized Cell Line); assay: Cytotoxic effect, Trypan Blue viable cell count after 72 hrs; type: cell-based
Method: (§3) Cells are plated in a 96 well flat bottom tissue culture plates at 10,000 cells/well. Dilutions and controls are added to wells as follows:
(§4) Vero Cells were grown and tested in complete Dulbeco's Modified Eagles Medium (DMEM) supplemented with 15% Fetal Bovine Serum (FBS), Gentamicine 40 μg/ml, Hepes buffer at pH=7.2, L-Glutamine 2 mM and Sodium pyruvate. MCF-7 were grown and tested in complete RPMI-1640 medium supplemented with 10% FBS Gentamicine 40 μg/ml, Hepes buffer at pH=7.2, L-Glutamine 2 mM and Sodium pyruvate. Plates were incubated in CO2 in a humidified incubator at 37° C. for 72 hrs, and then each well was harvested and counted by Trypan Blue dye exclusion method. Numbers of viable cells were counted on a hemacytometer and adjusted for concentration of cells/ml. For comparative purposes, experiments with Cisplatin ([…], MW=300), a well-known chemotherapeutic drug, at 8 and 4 μM were also conducted.

[4] = test system: MCF-7; conditions: for % Inhibition: 72 hrs
Method: as §3, §4
(§5) The methodology was the same as the one employed for Example 1 above.

[5] = test system: BHL-89 (Human B-type EBNA negative lymphoma); conditions: Example 2, FIG. 3, down to dilution 1:256 (18 and 3.64 μM silver and iron)
Method: as §3, §4, §5

[6] = test system: Jurkat; conditions: Example 2, FIG. 3, down to dilution 1:256 (18 and 3.64 μM silver and iron)
Method: as §3, §4, §5

[7] = test system: T-47D; conditions: Example 2, FIG. 3, down to dilution 1:256 (18 and 3.64 μM silver and iron)
Method: as §3, §4, §5

[8] = 100% of initial, approx. 24 hours, 37°C
[9] = S. aureus (ATCC 43300), 100% of initial, approx. 24 hours, 37°C

In the case of OO [50 mM H2O2, hydrogen peroxide], the “growth in MIC tube” value ([1]; 0.195% of initial) is reported as “+”, the “growth in MIC tube” value ([1]; 0.391% of initial) is reported as “+” and the “growth in MIC tube” value ([1]; 0.781% of initial) is reported as “+”. The “growth in MIC tube” value ([1]; 1.562% of initial) was “+”, the “growth in MIC tube” value ([1]; 3.125% of initial) was “+” and the “growth in MIC tube” value ([1]; 6.25% of initial) was “+”. For the same molecule, the “growth in MIC tube” value ([1]; 12.5% of initial) was “+”, the “growth in MIC tube” value ([1]; 25% of initial) was “NG” and the “growth in MIC tube” value ([1]; 50% of initial) was “NG”. The “growth in MIC tube” value [1, 8] was “NG”, the “growth in MIC tube” value [2, 9] was “+” and the “growth in MIC tube” value ([2]; S. aureus, 0.195% of initial) was “+”. For the same molecule, the “growth in MIC tube” value ([2]; S. aureus, 0.391% of initial) was “+”, the “growth in MIC tube” value ([2]; S. aureus, 0.781% of initial) was “+” and the “growth in MIC tube” value ([2]; S. aureus, 1.562% of initial) was “+”. For the same molecule, the “growth in MIC tube” value ([2]; S. aureus, 3.125% of initial) was “+”, the “growth in MIC tube” value ([2]; S. aureus, 6.25% of initial) was “+” and the “growth in MIC tube” value ([2]; S. aureus, 12.5% of initial) was “+”. For the same molecule, the “growth in MIC tube” value ([2]; S. aureus, 25% of initial) was “+” and the “growth in MIC tube” value ([2]; S. aureus, 50% of initial) was “+”.

For N.N.[Cl][Pt][Cl] [Cisplatin], the “% Inhibition” value ([3]; 4 μM) was “no effect”, the “% Inhibition” value ([3]; 4 μM, listed as CIS PLA) was −7% and the “% Inhibition” value ([3]; 8 μM) was 61%. The “% Inhibition” value ([4]; 4 μM) was 72% and the “% Inhibition” value ([4]; 8 μM) was 90%.

With Cc1onc(-c2ccccc2)c1C(=O)N[C@@H]1C(=O)N2[C@@H]1SC(C)(C)[C@@H]2C(=O)O [OXA, Oxacillin] the “growth in MIC tube” value ([1]; 0.195% of initial) was “+”, the “growth in MIC tube” value ([1]; 0.391% of initial) was “+” and the “growth in MIC tube” value ([1]; 0.781% of initial) was “+”. For the same molecule, the “growth in MIC tube” value ([1]; 1.562% of initial) was “+”, the “growth in MIC tube” value ([1]; 3.125% of initial) was “+” and the “growth in MIC tube” value ([1]; 6.25% of initial) was “+”. The “growth in MIC tube” value ([1]; 12.5% of initial) was “+”, the “growth in MIC tube” value ([1]; 25% of initial) was “+” and the “growth in MIC tube” value ([1]; 50% of initial) was “+”. The “growth in MIC tube” value [1, 8] was “+”, the MIC [1] was “NE” and the “growth in MIC tube” value [2, 9] was “NG”. For the same molecule, the “growth in MIC tube” value ([2]; S. aureus, 0.195% of initial) was “+”, the “growth in MIC tube” value ([2]; S. aureus, 0.391% of initial) was “+” and the “growth in MIC tube” value ([2]; S. aureus, 0.781% of initial) was “NG”. The “growth in MIC tube” value ([2]; S. aureus, 1.562% of initial) was “NG”, the “growth in MIC tube” value ([2]; S. aureus, 3.125% of initial) was “NG” and the “growth in MIC tube” value ([2]; S. aureus, 6.25% of initial) was “NG”. The “growth in MIC tube” value ([2]; S. aureus, 12.5% of initial) was “NG”, the “growth in MIC tube” value ([2]; S. aureus, 25% of initial) was “NG” and the “growth in MIC tube” value ([2]; S. aureus, 50% of initial) was “NG”. The MIC ([2]; Staphylococcus aureus, ATCC43300, S. aureus, read-out: MIC) was 1.56 mg/L.

In the case of O=P1(N(CCCl)CCCl)NCCCO1 (stereo not shown) [cyclophosphamide], the “cytotoxic effect (in words)” value [5] is reported as “does not have any effects”, the “cytotoxic effect (in words)” value [6] is reported as “minimum effects” and the “cytotoxic effect (in words)” value ([4]; Example 2, FIG. 3, down to dilution 1:256 (18 and 3.64 μM silver and iron)) is reported as “minimum effects”. The “cytotoxic effect (in words)” value [7] was “does not have any effects”.

In the case of Gentamicin, the “growth in MIC tube” value ([1]; 0.195% of initial) is reported as “+”, the “growth in MIC tube” value ([1]; 0.391% of initial) is reported as “+” and the “growth in MIC tube” value ([1]; 0.781% of initial) is reported as “+”. The “growth in MIC tube” value ([1]; 1.562% of initial) was “+”, the “growth in MIC tube” value ([1]; 3.125% of initial) was “+” and the “growth in MIC tube” value ([1]; 6.25% of initial) was “+”. The “growth in MIC tube” value ([1]; 12.5% of initial) was “+”, the “growth in MIC tube” value ([1]; 25% of initial) was “+” and the “growth in MIC tube” value ([1]; 50% of initial) was “+”. The “growth in MIC tube” value [1, 8] was “+”, the MIC [1] was “NE” and the “growth in MIC tube” value [2, 9] was “NG”. For the same molecule, the “growth in MIC tube” value ([2]; S. aureus, 0.195% of initial) was “NG”, the “growth in MIC tube” value ([2]; S. aureus, 0.391% of initial) was “NG” and the “growth in MIC tube” value ([2]; S. aureus, 0.781% of initial) was “NG”. The “growth in MIC tube” value ([2]; S. aureus, 1.562% of initial) was “NG”, the “growth in MIC tube” value ([2]; S. aureus, 3.125% of initial) was “NG” and the “growth in MIC tube” value ([2]; S. aureus, 6.25% of initial) was “NG”. The “growth in MIC tube” value ([2]; S. aureus, 12.5% of initial) was “NG”, the “growth in MIC tube” value ([2]; S. aureus, 25% of initial) was “NG” and the “growth in MIC tube” value ([2]; S. aureus, 50% of initial) was “NG”. For the same molecule, the MIC ([2]; S. aureus) was 0.391 ppm.
